Measured values from paper PMC7265341, “Quantifying CDK inhibitor selectivity in live cells” (Nature Communications, 2020).
Like-named read-outs stand apart in the source and are kept apart here.

Experiments:
CDK20/Cyclin H = CDK20/Cyclin H (Homo sapiens, UniProt Q8IZL9); test: NanoBRET live-cell target engagement, NanoLuc-CDK20/Cyclin H in HEK-293; assay type: binding; conditions: CDK20/H, read-out: Inhibition at 10µM (%)
CDK6/Cyclin D1 = CDK6/Cyclin D1 (Homo sapiens, UniProt Q00534); test: NanoBRET live-cell target engagement, NanoLuc-CDK6/Cyclin D1 in HEK-293; assay type: binding; conditions: CDK6/D1, read-out: Inhibition at 10µM (%)
CDK2/Cyclin E1 = CDK2/Cyclin E1 (Homo sapiens, UniProt P24941); test: NanoBRET live-cell target engagement, CDK2-NanoLuc/Cyclin E1 in HEK-293; assay type: binding; conditions: CDK2/E1, read-out: Inhibition at 10µM (%)
CDK15/Cyclin Y = CDK15/Cyclin Y (Homo sapiens, UniProt Q96Q40); test: NanoBRET live-cell target engagement, NanoLuc-CDK15/Cyclin Y in HEK-293; assay type: binding; conditions: CDK15/Y; for IC50: read-out: IC50; for inhibition at 10 µM: read-out: Inhibition at 10µM (%)
CDK1/Cyclin E1 = CDK1/Cyclin E1 (Homo sapiens, UniProt P06493); test: NanoBRET live-cell target engagement, CDK1-NanoLuc/Cyclin E1 in HEK-293; assay type: binding; conditions: CDK1/E1, read-out: Inhibition at 10µM (%)
CDK13/Cyclin K = CDK13/Cyclin K (Homo sapiens, UniProt Q14004); test: NanoBRET live-cell target engagement, CDK13-NanoLuc/Cyclin K in HEK-293; assay type: binding; conditions: CDK13/K, read-out: Inhibition at 10µM (%)
CDK4/Cyclin D1 = CDK4/Cyclin D1 (Homo sapiens, UniProt P11802); test: NanoBRET live-cell target engagement, NanoLuc-CDK4/Cyclin D1 in HEK-293; assay type: binding; conditions: CDK4/D1, read-out: Inhibition at 10µM (%)
CDK11A/Cyclin L2 = biological target: T1, CDK11A/Cyclin L2 (Homo sapiens, UniProt Q9UQ88); test: NanoBRET live-cell target engagement, CDK11A-NanoLuc/Cyclin L2 in HEK-293; assay type: binding; conditions: CDK11a/L2; for IC50: read-out: IC50; for inhibition at 10 µM: read-out: Inhibition at 10µM (%)
T1 sequence (Q9UQ88 1-783): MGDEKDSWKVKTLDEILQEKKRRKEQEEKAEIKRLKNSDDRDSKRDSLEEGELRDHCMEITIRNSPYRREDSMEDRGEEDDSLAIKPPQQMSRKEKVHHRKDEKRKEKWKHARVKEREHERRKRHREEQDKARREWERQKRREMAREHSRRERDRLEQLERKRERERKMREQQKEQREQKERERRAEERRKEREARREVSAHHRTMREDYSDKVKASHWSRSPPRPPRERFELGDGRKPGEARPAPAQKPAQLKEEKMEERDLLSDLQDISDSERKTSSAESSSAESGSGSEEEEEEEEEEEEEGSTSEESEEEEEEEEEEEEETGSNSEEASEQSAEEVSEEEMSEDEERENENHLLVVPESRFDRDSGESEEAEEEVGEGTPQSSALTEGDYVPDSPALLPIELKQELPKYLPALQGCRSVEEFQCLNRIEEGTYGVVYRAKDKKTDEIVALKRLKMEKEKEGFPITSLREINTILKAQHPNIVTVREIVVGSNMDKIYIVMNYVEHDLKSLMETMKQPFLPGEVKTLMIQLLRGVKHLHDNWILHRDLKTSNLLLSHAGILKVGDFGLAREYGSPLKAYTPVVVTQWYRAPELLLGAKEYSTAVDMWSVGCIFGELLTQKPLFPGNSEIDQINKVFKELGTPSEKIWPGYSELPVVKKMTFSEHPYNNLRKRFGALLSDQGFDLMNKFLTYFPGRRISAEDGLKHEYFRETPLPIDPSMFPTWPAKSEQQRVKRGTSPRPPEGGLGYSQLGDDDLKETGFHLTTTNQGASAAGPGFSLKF

CDK16/Cyclin Y = CDK16/Cyclin Y (Homo sapiens, UniProt Q00536); test: NanoBRET live-cell target engagement, CDK16-NanoLuc/Cyclin Y in HEK-293; assay type: binding; conditions: CDK16/Y; for IC50: read-out: IC50; for inhibition at 10 µM: read-out: Inhibition at 10µM (%)
CDK5/CDK5R1 = CDK5/CDK5R1 (Homo sapiens, UniProt Q00535); test: NanoBRET live-cell target engagement, CDK5-NanoLuc/CDK5R1 in HEK-293; assay type: binding; conditions: CDK5/CDK5R1, read-out: Inhibition at 10µM (%)
CDK3/Cyclin E1 = CDK3/Cyclin E1 (Homo sapiens, UniProt Q00526); test: NanoBRET live-cell target engagement, CDK3-NanoLuc/Cyclin E1 in HEK-293; assay type: binding; conditions: CDK3/E1, read-out: Inhibition at 10µM (%)
CDK8/Cyclin C = CDK8/Cyclin C (Homo sapiens, UniProt P49336); test: NanoBRET live-cell target engagement, NanoLuc-CDK8/Cyclin C in HEK-293; assay type: binding; conditions: CDK8/C, read-out: Inhibition at 10µM (%)
CDK17/Cyclin Y = CDK17/Cyclin Y (Homo sapiens, UniProt Q00537); test: NanoBRET live-cell target engagement, CDK17-NanoLuc/Cyclin Y in HEK-293; assay type: binding; conditions: CDK17/Y; for IC50: read-out: IC50; for inhibition at 10 µM: read-out: Inhibition at 10µM (%)
CDK19/Cyclin C = CDK19/Cyclin C (Homo sapiens, UniProt Q9BWU1); test: NanoBRET live-cell target engagement, NanoLuc-CDK19/Cyclin C in HEK-293; conditions: read-out: Inhibition at 10µM (%), CDK19/C
CDK7 = CDK7 (Homo sapiens, UniProt P50613); test: NanoBRET live-cell target engagement, NanoLuc-CDK7 in HEK-293; assay type: binding; conditions: CDK7; for IC50: read-out: IC50; for inhibition at 10 µM: read-out: Inhibition at 10µM (%)
CDK11B/Cyclin L2 = CDK11B/Cyclin L2 (Homo sapiens, UniProt P21127); test: NanoBRET live-cell target engagement, CDK11B-NanoLuc/Cyclin L2 in HEK-293; assay type: binding; conditions: CDK11b/L2; for IC50: read-out: IC50; for inhibition at 10 µM: read-out: Inhibition at 10µM (%)
CDK12/Cyclin K = CDK12/Cyclin K (Homo sapiens, UniProt Q9NYV4); test: NanoBRET live-cell target engagement, CDK12-NanoLuc/Cyclin K in HEK-293; assay type: binding; conditions: read-out: Inhibition at 10µM (%), CDK12/K
CDK18/Cyclin Y = CDK18/Cyclin Y (Homo sapiens, UniProt Q07002); test: NanoBRET live-cell target engagement, CDK18-NanoLuc/Cyclin Y in HEK-293; assay type: binding; conditions: for IC50: read-out: IC50
CDK9/Cyclin K = CDK9/Cyclin K (Homo sapiens, UniProt P50750); test: NanoBRET live-cell target engagement, NanoLuc-CDK9/Cyclin K in HEK-293; assay type: binding; conditions: CDK9/K; for inhibition at 10 µM: read-out: Inhibition at 10µM (%)

Sequence of CDK11B/Cyclin L2 (P21127 1-782 isoform P21127-2): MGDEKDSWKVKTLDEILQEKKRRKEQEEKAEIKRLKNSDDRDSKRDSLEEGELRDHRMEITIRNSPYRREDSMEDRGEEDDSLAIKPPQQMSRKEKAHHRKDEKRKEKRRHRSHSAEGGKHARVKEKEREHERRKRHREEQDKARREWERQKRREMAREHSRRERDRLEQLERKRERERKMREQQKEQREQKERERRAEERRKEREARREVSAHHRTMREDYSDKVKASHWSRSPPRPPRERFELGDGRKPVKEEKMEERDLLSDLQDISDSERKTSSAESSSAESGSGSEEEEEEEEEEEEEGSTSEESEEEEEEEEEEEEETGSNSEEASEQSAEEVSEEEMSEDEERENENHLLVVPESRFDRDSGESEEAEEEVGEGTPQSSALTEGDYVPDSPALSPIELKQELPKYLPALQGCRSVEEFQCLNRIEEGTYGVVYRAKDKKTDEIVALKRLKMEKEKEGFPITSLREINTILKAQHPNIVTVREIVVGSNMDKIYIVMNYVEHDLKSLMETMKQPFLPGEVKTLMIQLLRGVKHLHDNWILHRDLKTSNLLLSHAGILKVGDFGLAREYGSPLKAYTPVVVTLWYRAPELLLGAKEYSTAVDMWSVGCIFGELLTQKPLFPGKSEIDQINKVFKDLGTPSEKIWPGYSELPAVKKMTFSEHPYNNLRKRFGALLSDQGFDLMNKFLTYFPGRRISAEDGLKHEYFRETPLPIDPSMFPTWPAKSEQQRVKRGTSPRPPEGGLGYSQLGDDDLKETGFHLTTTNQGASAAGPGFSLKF
Sequence of CDK5/CDK5R1 (Q00535 whole entry): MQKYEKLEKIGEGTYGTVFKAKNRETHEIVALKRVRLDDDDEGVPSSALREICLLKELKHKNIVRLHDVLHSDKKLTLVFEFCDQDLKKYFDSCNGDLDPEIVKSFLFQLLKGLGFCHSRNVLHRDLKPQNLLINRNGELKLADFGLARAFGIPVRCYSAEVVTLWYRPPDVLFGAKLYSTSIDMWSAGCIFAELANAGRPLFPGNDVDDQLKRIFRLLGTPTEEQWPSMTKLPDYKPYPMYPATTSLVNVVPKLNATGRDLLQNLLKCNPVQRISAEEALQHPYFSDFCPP
Sequence of CDK5/CDK5R1 (Q15078 whole entry partner): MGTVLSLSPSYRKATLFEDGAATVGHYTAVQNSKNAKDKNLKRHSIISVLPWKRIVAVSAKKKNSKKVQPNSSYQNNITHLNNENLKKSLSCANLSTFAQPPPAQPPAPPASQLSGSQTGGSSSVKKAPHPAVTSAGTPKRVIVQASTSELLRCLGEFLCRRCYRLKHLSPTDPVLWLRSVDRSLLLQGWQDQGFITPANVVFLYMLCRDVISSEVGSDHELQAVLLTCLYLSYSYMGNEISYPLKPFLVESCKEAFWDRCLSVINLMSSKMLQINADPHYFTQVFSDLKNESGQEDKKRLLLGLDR
Sequence of CDK18/Cyclin Y (Q07002 whole entry): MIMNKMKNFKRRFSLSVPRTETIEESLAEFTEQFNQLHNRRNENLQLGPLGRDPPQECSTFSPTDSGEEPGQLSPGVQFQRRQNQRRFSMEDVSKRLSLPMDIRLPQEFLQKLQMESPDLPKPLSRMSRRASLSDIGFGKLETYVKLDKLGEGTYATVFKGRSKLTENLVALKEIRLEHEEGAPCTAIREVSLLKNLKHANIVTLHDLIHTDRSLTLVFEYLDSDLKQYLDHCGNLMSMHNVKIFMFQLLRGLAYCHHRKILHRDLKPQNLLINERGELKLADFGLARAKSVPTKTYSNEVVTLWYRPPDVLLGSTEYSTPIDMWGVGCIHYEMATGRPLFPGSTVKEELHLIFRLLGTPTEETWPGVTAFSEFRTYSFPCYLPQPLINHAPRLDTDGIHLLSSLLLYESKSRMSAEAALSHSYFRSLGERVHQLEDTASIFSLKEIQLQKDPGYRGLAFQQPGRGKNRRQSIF
Sequence of CDK18/Cyclin Y (Q8ND76 whole entry partner): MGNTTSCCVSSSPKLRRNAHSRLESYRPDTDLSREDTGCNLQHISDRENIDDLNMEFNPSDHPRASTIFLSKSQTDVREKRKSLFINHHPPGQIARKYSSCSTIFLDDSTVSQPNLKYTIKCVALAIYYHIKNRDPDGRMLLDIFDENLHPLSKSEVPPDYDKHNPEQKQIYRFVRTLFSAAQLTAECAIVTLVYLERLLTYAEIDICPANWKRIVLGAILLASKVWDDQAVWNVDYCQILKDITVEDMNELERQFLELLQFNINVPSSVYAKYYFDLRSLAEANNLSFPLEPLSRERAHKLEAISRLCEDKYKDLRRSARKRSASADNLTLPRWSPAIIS
Sequence of CDK4/Cyclin D1 (P11802 whole entry): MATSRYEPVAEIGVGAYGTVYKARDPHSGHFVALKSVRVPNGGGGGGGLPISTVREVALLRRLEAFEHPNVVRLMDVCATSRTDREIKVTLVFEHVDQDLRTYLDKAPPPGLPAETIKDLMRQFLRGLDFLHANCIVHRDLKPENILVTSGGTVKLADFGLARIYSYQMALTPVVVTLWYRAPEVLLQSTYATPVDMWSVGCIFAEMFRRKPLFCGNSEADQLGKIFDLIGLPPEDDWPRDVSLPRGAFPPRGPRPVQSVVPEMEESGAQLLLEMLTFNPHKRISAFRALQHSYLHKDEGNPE
Sequence of CDK4/Cyclin D1 (P24385 whole entry partner): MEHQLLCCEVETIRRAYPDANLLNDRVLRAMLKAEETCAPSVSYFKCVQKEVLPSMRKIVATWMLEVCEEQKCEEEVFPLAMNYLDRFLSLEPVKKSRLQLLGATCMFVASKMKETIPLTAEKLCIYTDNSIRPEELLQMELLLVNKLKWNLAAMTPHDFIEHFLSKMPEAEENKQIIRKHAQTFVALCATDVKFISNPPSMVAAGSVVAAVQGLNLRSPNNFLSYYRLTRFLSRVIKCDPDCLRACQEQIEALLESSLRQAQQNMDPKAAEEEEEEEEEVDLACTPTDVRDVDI
Sequence of CDK12/Cyclin K (Q9NYV4 1-1481 isoform Q9NYV4-2): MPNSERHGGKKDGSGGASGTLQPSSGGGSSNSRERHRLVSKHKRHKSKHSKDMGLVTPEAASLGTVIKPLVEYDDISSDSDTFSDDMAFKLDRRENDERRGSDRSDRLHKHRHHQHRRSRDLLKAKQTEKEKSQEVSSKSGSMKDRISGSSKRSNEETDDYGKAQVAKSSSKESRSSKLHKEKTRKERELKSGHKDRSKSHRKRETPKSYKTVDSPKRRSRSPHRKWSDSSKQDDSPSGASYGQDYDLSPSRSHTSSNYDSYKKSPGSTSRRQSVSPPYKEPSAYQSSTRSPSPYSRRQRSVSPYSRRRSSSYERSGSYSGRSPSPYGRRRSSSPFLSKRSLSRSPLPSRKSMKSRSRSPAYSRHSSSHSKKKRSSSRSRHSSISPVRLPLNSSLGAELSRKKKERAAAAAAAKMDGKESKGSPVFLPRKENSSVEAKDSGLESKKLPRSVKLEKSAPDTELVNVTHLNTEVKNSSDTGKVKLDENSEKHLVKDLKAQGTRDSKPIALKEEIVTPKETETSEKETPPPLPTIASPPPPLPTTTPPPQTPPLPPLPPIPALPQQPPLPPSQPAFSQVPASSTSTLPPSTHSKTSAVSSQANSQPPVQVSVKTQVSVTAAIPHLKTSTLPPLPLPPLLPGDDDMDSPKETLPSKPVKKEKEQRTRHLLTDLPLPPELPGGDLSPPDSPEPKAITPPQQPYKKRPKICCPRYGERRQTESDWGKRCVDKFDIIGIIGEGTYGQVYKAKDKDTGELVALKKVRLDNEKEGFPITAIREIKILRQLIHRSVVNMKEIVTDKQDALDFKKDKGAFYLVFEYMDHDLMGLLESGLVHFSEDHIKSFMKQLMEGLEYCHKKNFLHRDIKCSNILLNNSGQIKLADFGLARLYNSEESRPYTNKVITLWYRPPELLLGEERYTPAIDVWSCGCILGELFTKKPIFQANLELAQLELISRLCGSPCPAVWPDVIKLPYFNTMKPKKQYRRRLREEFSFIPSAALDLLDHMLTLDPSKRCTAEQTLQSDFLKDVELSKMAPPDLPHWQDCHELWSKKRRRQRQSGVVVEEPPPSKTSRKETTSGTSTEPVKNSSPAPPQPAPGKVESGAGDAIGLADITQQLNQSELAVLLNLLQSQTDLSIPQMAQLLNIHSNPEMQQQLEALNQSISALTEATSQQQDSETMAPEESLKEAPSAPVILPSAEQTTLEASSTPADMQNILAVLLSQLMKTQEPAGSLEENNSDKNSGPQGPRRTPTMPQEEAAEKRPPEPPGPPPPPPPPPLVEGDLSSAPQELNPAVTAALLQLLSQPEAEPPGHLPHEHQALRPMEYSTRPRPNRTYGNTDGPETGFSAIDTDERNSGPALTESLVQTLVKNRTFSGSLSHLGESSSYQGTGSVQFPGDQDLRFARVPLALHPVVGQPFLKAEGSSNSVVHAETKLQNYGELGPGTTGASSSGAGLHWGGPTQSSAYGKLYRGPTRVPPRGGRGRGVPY
Sequence of CDK12/Cyclin K (O75909 whole entry partner): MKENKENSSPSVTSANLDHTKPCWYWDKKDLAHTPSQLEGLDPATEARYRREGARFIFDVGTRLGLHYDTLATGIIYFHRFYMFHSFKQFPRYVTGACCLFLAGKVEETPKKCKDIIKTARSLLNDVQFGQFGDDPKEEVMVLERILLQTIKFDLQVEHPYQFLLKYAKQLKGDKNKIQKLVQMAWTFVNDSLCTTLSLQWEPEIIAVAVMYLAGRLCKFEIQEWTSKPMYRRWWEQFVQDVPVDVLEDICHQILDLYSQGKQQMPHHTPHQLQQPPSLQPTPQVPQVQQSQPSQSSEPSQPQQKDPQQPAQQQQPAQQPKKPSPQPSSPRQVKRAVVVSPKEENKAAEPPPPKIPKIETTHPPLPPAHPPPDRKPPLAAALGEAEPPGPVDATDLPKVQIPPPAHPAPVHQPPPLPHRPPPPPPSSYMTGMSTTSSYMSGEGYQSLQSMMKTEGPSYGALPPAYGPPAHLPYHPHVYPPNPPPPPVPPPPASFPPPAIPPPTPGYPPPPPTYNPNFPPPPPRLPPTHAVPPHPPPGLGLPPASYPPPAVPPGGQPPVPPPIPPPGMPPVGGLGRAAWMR

COc1ccc(F)cc1-c1cc(NC(=O)C2CCCNC2)ncc1Cl (stereo not drawn) [CDK inhibitor 2]
inhibition at 10 µM (CDK20/Cyclin H; experiment 1): 18.7% | inhibition at 10 µM (CDK20/Cyclin H; experiment 2): 27.3% | inhibition at 10 µM (CDK6/Cyclin D1; average): 77.1% | inhibition at 10 µM (CDK6/Cyclin D1; experiment 1): 76.2% | inhibition at 10 µM (CDK6/Cyclin D1; experiment 2): 78% | inhibition at 10 µM (CDK2/Cyclin E1; average): 65.6% | inhibition at 10 µM (CDK2/Cyclin E1; experiment 1): 61.9% | inhibition at 10 µM (CDK2/Cyclin E1; experiment 2): 69.3% | IC50 (CDK15/Cyclin Y; average (± SEM where n=3)): 540 ± 70 nM | inhibition at 10 µM (CDK15/Cyclin Y; average): 92.4% | IC50 (CDK15/Cyclin Y; experiment 1): 407 nM | inhibition at 10 µM (CDK15/Cyclin Y; experiment 1): 93.4% | IC50 (CDK15/Cyclin Y; experiment 2): 570 nM | inhibition at 10 µM (CDK15/Cyclin Y; experiment 2): 91.4% | IC50 (CDK15/Cyclin Y; experiment 3): 648 nM | inhibition at 10 µM (CDK1/Cyclin E1; average): 79.7% | inhibition at 10 µM (CDK1/Cyclin E1; experiment 1): 76.7% | inhibition at 10 µM (CDK1/Cyclin E1; experiment 2): 82.8% | inhibition at 10 µM (CDK13/Cyclin K; average): 41.2% | inhibition at 10 µM (CDK13/Cyclin K; experiment 1): 31.4% | inhibition at 10 µM (CDK13/Cyclin K; experiment 2): 51.1% | inhibition at 10 µM (CDK4/Cyclin D1; average): 83.4% | inhibition at 10 µM (CDK4/Cyclin D1; experiment 1): 81.2% | inhibition at 10 µM (CDK4/Cyclin D1; experiment 2): 85.7% | IC50 (CDK11A/Cyclin L2; average (± SEM where n=3)): 20 ± 10 nM | inhibition at 10 µM (CDK11A/Cyclin L2; average): 95.4% | IC50 (CDK11A/Cyclin L2; experiment 1): 8.3 nM | inhibition at 10 µM (CDK11A/Cyclin L2; experiment 1): 94.8% | IC50 (CDK11A/Cyclin L2; experiment 2): 17 nM | inhibition at 10 µM (CDK11A/Cyclin L2; experiment 2): 95.9% | IC50 (CDK11A/Cyclin L2; experiment 3): 47 nM | IC50 (CDK16/Cyclin Y; average (± SEM where n=3)): 100 ± 30 nM | IC50 (CDK16/Cyclin Y; experiment 1): 51 nM | inhibition at 10 µM (CDK16/Cyclin Y; experiment 1): 89.7% | IC50 (CDK16/Cyclin Y; experiment 2): 140 nM | inhibition at 10 µM (CDK16/Cyclin Y; experiment 2): 90.1% | IC50 (CDK16/Cyclin Y; experiment 3): 117 nM | inhibition at 10 µM (CDK5/CDK5R1; average): 40% | inhibition at 10 µM (CDK5/CDK5R1; experiment 1): 37.7% | inhibition at 10 µM (CDK5/CDK5R1; experiment 2): 42.4% | inhibition at 10 µM (CDK3/Cyclin E1; average): 92.7% | inhibition at 10 µM (CDK3/Cyclin E1; experiment 1): 92.3% | inhibition at 10 µM (CDK3/Cyclin E1; experiment 2): 93% | inhibition at 10 µM (CDK8/Cyclin C; average): 58% | inhibition at 10 µM (CDK8/Cyclin C; experiment 1): 65.9% | inhibition at 10 µM (CDK8/Cyclin C; experiment 2): 50% | IC50 (CDK17/Cyclin Y; average (± SEM where n=3)): 90 ± 20 nM | inhibition at 10 µM (CDK17/Cyclin Y; average): 91.6% | IC50 (CDK17/Cyclin Y; experiment 1): 57 nM | inhibition at 10 µM (CDK17/Cyclin Y; experiment 1): 90.5% | IC50 (CDK17/Cyclin Y; experiment 2): 110 nM | inhibition at 10 µM (CDK17/Cyclin Y; experiment 2): 92.6% | IC50 (CDK17/Cyclin Y; experiment 3): 99 nM | inhibition at 10 µM (CDK19/Cyclin C; average): 72.6% | inhibition at 10 µM (CDK19/Cyclin C; experiment 1): 75.1% | inhibition at 10 µM (CDK19/Cyclin C; experiment 2): 70.1% | IC50 (CDK7; average (± SEM where n=3)): 120 ± 50 nM | inhibition at 10 µM (CDK7; average): 82.8% | IC50 (CDK7; experiment 1): 83 nM | inhibition at 10 µM (CDK7; experiment 1): 83.3% | IC50 (CDK7; experiment 2): 58 nM | inhibition at 10 µM (CDK7; experiment 2): 82.3% | IC50 (CDK7; experiment 3): 215 nM | IC50 (CDK11B/Cyclin L2; average (± SEM where n=3)): 17 ± 5 nM | inhibition at 10 µM (CDK11B/Cyclin L2; average): 95.6% | IC50 (CDK11B/Cyclin L2; experiment 1): 9 nM | inhibition at 10 µM (CDK11B/Cyclin L2; experiment 1): 96.5% | IC50 (CDK11B/Cyclin L2; experiment 2): 18 nM | inhibition at 10 µM (CDK11B/Cyclin L2; experiment 2): 94.6% | IC50 (CDK11B/Cyclin L2; experiment 3): 25 nM | inhibition at 10 µM (CDK12/Cyclin K; average): 49.3% | inhibition at 10 µM (CDK12/Cyclin K; experiment 1): 41% | inhibition at 10 µM (CDK12/Cyclin K; experiment 2): 57.6% | IC50 (CDK18/Cyclin Y; CDK18/Y, average (± SEM where n=3)): 140 ± 30 nM | IC50 (CDK18/Cyclin Y; CDK18/Y, experiment 1): 104 nM | inhibition at 10 µM (CDK18/Cyclin Y; CDK18/Y, experiment 1, read-out: Inhibition at 10µM (%)): 93.5% | IC50 (CDK18/Cyclin Y; CDK18/Y, experiment 2): 210 nM | inhibition at 10 µM (CDK18/Cyclin Y; CDK18/Y, experiment 2, read-out: Inhibition at 10µM (%)): 102% | IC50 (CDK18/Cyclin Y; CDK18/Y, experiment 3): 112 nM | inhibition at 10 µM (CDK18/Cyclin Y; read-out: Inhibition at 10µM (%), CDK18/Y, average): 97.8% | IC50 (CDK9/Cyclin K; average (± SEM where n=3)): 3.5 ± 0.8 nM | inhibition at 10 µM (CDK9/Cyclin K; average): 98.4% | IC50 (CDK9/Cyclin K; experiment 1): 5 nM | inhibition at 10 µM (CDK9/Cyclin K; experiment 1): 99.1% | IC50 (CDK9/Cyclin K; experiment 2): 2.3 nM | inhibition at 10 µM (CDK9/Cyclin K; experiment 2): 97.8% | IC50 (CDK9/Cyclin K; experiment 3): 3 nM
